Consider 14 compounds from patent US10973819B2, “Small molecules inhibitors of RAD51” (The University of Chicago, priority 2016, dated 2021).

Each structure is given as a SMILES string. Like-named read-outs stand apart in the source and are kept apart here.

Test [1] has as its target T1, RAD51 (Homo sapiens, UniProt Q06609).
T1 sequence (Q06609 1-339): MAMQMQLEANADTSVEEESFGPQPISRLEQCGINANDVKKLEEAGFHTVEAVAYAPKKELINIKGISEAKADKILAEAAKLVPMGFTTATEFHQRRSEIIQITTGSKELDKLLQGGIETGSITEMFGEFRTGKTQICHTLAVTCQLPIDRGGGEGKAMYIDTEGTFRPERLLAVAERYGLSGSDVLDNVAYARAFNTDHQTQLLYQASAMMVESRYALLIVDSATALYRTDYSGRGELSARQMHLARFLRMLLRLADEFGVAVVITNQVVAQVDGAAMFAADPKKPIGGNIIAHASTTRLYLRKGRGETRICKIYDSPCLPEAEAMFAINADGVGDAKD
Description: Fluorescence polarization-based DNA binding assay (RAD51-ssDNA binding). Conditions: for ssDNA binding IC50 / IC50: Stim = stimulator; for Emax: read-out: ssDNA binding Max effect; for influence on RAD51-ssDNA binding, in words: summary of Tables 2 and 3. It is filed as biochemical. The protocol:
The fluorescence polarization-based DNA binding assay and purification of human RAD51 used for this assay was performed as previously described with a few modifications.^23 Reactions were carried out in black 384-well polystyrene plates. In each well, RAD51 protein was combined with reaction buffer and varying concentrations of compound in DMSO in an initial volume of 40 μl and incubated at 37° C. for 40 minutes. Then, 10 μl of reaction buffer containing fluorescently-labeled ssDNA substrate (5′-Alexa488-oligo-dT45) was added and the reaction incubated at 37° C. for another 40 minutes, after which the plate was read on a Tecan Infinite 200 Pro plate reader equipped with two sets of 485±25 nm/535±35 nm with parallel or perpendicularly-oriented polarization filters. In both steps of the reaction setup, buffer components were maintained at 20 mM HEPES-NaOH (pH 7.5), 2 mM ATP, 10 mM MgCl2, 0.1 mM TCEP-HCl (tris(2-carboxyethyl)phosphine), and 0.25 μM BSA. The final reaction contained 4% DMSO, 0.2 μM RAD51, 30 mM NaCl, 2% glycerol, and 2.22 nM ssDNA substrate. Compound IC50 values were obtained by least-squares regression fitting of appropriate linear, log, or sigmoid dose-response models to the data, with the standard error indicated. […]

Test [2] addresses T1, RAD51. Briefly: Gel-based D-loop assay. The format is biochemical. Conditions: for IC50: read-out: D-Loops IC50; for D-loop inhibitory activity, in words: summary of Tables 2 and 3. The method, then:
Human RAD51 in reaction buffer was combined with compound in […] DMSO, incubated at 37° C. for 10 min, and then 1 μl of 5′-^32P-labeled 90-mer ssDNA (5′-[…]) with homology to the plasmid pRS306 ^34 was added and the reaction was incubated at 37° C. for an additional 5 minutes. 1 μl of supercoiled pRS306 was then added to the reaction and incubated at 37° C. for 20 minutes; at this point the reaction consisted of 25 mM HEPES-NaOH (pH 7.0), 1 mM ATP, 1 mM MgCl2, 1 mM DTT, 1.5 μM BSA, 4.5% DMSO, 0.5 μM RAD51, 11 mM NaCl, 1% glycerol, 20 nM ssDNA, and 5 nM pRS306. The reactions were de-proteinized with 0.8% SDS and 0.8 mg/ml proteinase K, mixed with gel loading buffer, and run on a 0.9% agarose/1×TAE gel, which was dried and exposed to a phosphor screen overnight and imaged on a Storm 860 PhosphorImager. Compound IC50 values were obtained by least-squares regression fitting of appropriate linear, log, or sigmoid dose-response models to the data, with the standard error indicated.
To improve upon the D-loop inhibitory activity, medicinal chemical studies were undertaken to optimize 8. First, different functional groups were appended to rings A and B as substituents, including alkyl groups of different sizes, electron withdrawing/donating groups, and hydrogen bond donor/acceptor groups. Next, replacement of the phenyl ring B with different heterocycles or other saturated/unsaturated rings was investigated in order to probe its role. For each of the prepared compounds, the gel-based D-loop assay and the microplate-based DNA binding assay were used to characterize the biochemical activities.

The mark [3] stands for this setting: Table 2, cells marked ↑: compound stimulates RAD51-ssDNA binding.
Setting [4] is: Table 2, cells marked ↓: compound inhibits RAD51-ssDNA binding.
[5] abbreviates: Table 3, cells marked ↓: compound inhibits RAD51-ssDNA binding.
[6] abbreviates: Table 3, cells marked ↑: compound stimulates RAD51-ssDNA binding.

For `c1ccc2c(c1)nc(-c1ccc(N3CCCC3)cc1)c1cccn12` [Compound 9i, 4-(4-(Pyrrolidin-1-yl)phenyl)pyrrolo[1,2-a]quinoxaline], the “ssDNA binding IC50” value in test [1] (Table 2) is recorded as “Stim”. Also, the Emax in test [1] (setting [3]) is 69 ± 35%. Also, the “influence on RAD51-ssDNA binding, in words” value (“influence” below) in test [1] is “modest influence”.
As for `O=[N+]([O-])c1cccc(-c2nc3ccccc3n3cccc23)c1` [Compound 9b, 4-(3-Nitrophenyl)pyrrolo[1,2-a]quinoxaline], the Emax in test [1] (setting [4]) is 52 ± 14%. The “influence” value in test [1] was “modest influence”.
Compound `COc1ccc2c(c1)nc(-c1ccc(O)cc1)c1cccn12` [Compound 12a, 4-(7-Methoxypyrrolo[1,2-a]quinoxalin-4-yl)phenol] came in with a half-maximal inhibitory concentration (IC50) in test [1] (Table 3) of 35 ± 14 µM. Moreover, the Emax in test [1] (setting [5]) stood at 100 ± 18%. Further, in test [1], the “influence” value is “relatively strong ssDNA binding inhibition”. Besides, in test [2] (Table 3), the “D-Loops Max inhibition effect” value is recorded as 13 ± 12% and the IC50 was over 100 µM.
`c1ccc2c(-c3nc4ccccc4n4cccc34)cccc2c1` [Compound 11d, 4-(Naphthalen-1-yl)pyrrolo[1,2-a]quinoxaline]: the “ssDNA binding IC50” value in test [1] (Table 2) is recorded as “Stim”. The Emax in test [1] (setting [3]) was determined as 56 ± 31%. The “influence” value in test [1] is recorded as “modest influence”. Further, the “D-loop inhibitory activity, in words” value in test [2] is given as “weak”.
Regarding `CCCOc1ccc2c(c1)nc(-c1ccc(N)cc1)c1cccn12` [Compound 15a, 4-(7-Propoxypyrrolo[1,2-a]quinoxalin-4-yl)aniline], in test [1] (Table 3), the “ssDNA binding IC50” value is “Stim”. In addition, the Emax in test [1] (setting [6]) came out at 117 ± 18%. Also, the “influence” value in test [1] was “stimulators”. Further, in test [2] (Table 3), the half-inhibitory concentration (IC50) turned out to be 46.1 ± 2.8 µM.
As for `Nc1ccc(-c2nc3cc(F)ccc3n3cccc23)cc1` [Compound 12i, 4-(7-Fluoropyrrolo[1,2-a]quinoxalin-4-yl)aniline], the half-inhibitory concentration (IC50) in test [1] (Table 3) is 81.5 ± 16.6 µM; in test [2] (Table 3), 25 ± 5.1 µM. In addition, the Emax in test [1] (setting [5]) came to 60 ± 18%.
Turning to `c1cncc(-c2nc3ccccc3n3cccc23)c1` [Compound 11a, 4-(Pyridin-3-yl)pyrrolo[1,2-a]quinoxaline], the results for the IC50 in test [1] (Table 2) and in test [2] (Table 2) were over 100 µM and 71.7 ± 18.1 µM, respectively. Also, in test [1] (setting [4]), the Emax was 6 ± 10%. For the same compound, the “D-loop inhibitory activity, in words” value in test [2] was “moderate”.
On to `CN(C)c1ccc(-c2nc3ccccc3n3cccc23)cc1` [Compound 9a, N,N-dimethyl-4-(pyrrolo[1,2-a]quinoxalin-4-yl)aniline], for which the “ssDNA binding IC50” value in test [1] (Table 2) is “Stim”. Moreover, the Emax in test [1] (setting [3]) came out at 88 ± 22%. Also, the “influence” value in test [1] is on record as “modest influence”. Moreover, the IC50 in test [2] (Table 2) turned out to be 27.6 ± 6 µM.
Take `COc1ccc2c(c1)nc(-c1ccc(N)cc1)c1cccn12` [Compound 12c, 4-(7-Methoxypyrrolo[1,2-a]quinoxalin-4-yl)aniline]: the values for the IC50 in test [1] (Table 3) and in test [2] (Table 3) were over 100 µM and 13.2 µM, respectively. The Emax in test [1] (setting [5]) worked out at 29 ± 8%. In test [1], the “influence” value was “only weakly influenced”. In addition, the “D-Loops Max inhibition effect” value in test [2] (Table 3) amounted to 100 ± 4%.
The compound `O=[N+]([O-])c1ccc(-c2nc3cc(O)ccc3n3cccc23)cc1` [Compound 12e, 4-(4-Nitrophenyl)pyrrolo[1,2-a]quinoxalin-7-ol] registered an IC50 in test [1] (Table 3) of 57.8 ± 3 µM. The Emax in test [1] (setting [5]) worked out at 92 ± 21%.
Turning to `O=[N+]([O-])c1ccc(-c2nc3ccccc3n3cccc23)cc1` [Compound 9f, 4-(4-Nitrophenyl)pyrrolo[1,2-a]quinoxaline], the Emax in test [1] (setting [4]) turned out to be 16 ± 13%.
Turning to `COc1ccc2c(c1)nc(-c1ccc([N+](=O)[O-])cc1)c1cccn12` [Compound 12b, 7-Methoxy-4-(4-nitrophenyl)pyrrolo[1,2-a]quinoxaline], the “ssDNA binding IC50” value in test [1] (Table 3) is given as “Stim”. Further, the Emax in test [1] (setting [6]) is 105 ± 47%. The “influence” value in test [1] is reported as “stimulators”.
In the case of `Oc1ccc(-c2nc3ccccc3n3cccc23)cc1` [Compound 9d], the Emax in test [1] (setting [4]) is 14 ± 16%.
Regarding `FC(F)(F)Oc1ccc(-c2nc3ccccc3n3cccc23)cc1` [Compound 9e, 4-(4-(Trifluoromethoxy)phenyl)pyrrolo[1,2-a]quinoxaline], the “ssDNA binding IC50” value in test [1] (Table 2) is reported as “Stim”. The Emax in test [1] (setting [3]) was 30 ± 21%.
